Data reported in patent publication US4558049A, “Antipsycotic benzoxazines” (Farmitalia Carlo Erba S.p.A., priority 1982, dated 1985).
Read-outs that look alike come from different tables or passages of the source.

Assays:
[1] = LD50 / acute toxicity in mice; conditions: mouse, in vivo, po, approximate LD50
[2] = tested on: neuromuscular coordination in the rat; assay: Rotarod test (neuromuscular coordination in the rat); format: in vivo; conditions: p.o.
[3] = tested on: spontaneous activity in mice; assay: Reduction of spontaneous activity in mice (Irwin technique); conditions: p.o.
catalepsy in rats = assay: Catalepsy induction in rats; format: in vivo; conditions: rat, p.o.
[4] = tested on: apomorphine-induced climbing behaviour in mice; assay: Apomorphine antagonism in mice (apomorphine-induced climbing behaviour, Protais et al.); format: in vivo; conditions: Mus musculus, po
[5] = tested on: rats with 6-OHDA induced unilateral lesions of the dopaminergic nigrostriatal pathway; assay: Turning-behaviour (antagonism to rotational behaviour by dopaminergic agents in rats with 6-OHDA induced unilateral lesions); format: in vivo; conditions: rat, p.o.
[6] = tested on: conditioned Avoidance Response in the rat; assay: C.A.R. test (interference with conditioned Avoidance Response in the rat); format: in vivo; conditions: p.o.
[7] = Reduction of body temperature in mice (Irwin technique); conditions: p.o.
[8] = tested on: spontaneous activity in mice; conditions: mouse, in vivo, po
[9] = mouse, in vivo, po

O=C1Nc2ccc(Br)cc2C2(CCN(CCCC(=O)c3ccc(F)cc3)CC2)O1 [Example 1, 1'-[3-(4-Fluorobenzoyl)propyl]spiro-(3,1-benzoxazine-6-bromo-4(2H)4'-piperidin)-2-one]
LD50 [1]: > 800 mg/kg
Min. active dose in Rotarod test [2]: > 50 mg/kg p.o.
Reduction of spontaneous activity in mice (min. active dose) [3]: 12.5 mg/kg p.o.
Min. active dose in Catalepsy induction (catalepsy in rats): > 200 mg/kg p.o.
ED50 [4]: 1.7 mg/kg
Min. active dose in Turning-behaviour [5]: > 20 mg/kg p.o.
Min. active dose in C.A.R. test [6]: 25 mg/kg p.o.
Reduction of body temperature in mice (min. active dose) [7]: 100 mg/kg p.o.

O=C1Nc2ccc([N+](=O)[O-])cc2C2(CCN(CCCC(=O)c3ccc(F)cc3)CC2)O1 [Example 3, 1'-[3-(4-fluorobenzoyl)propyl]spiro-(3,1-benzoxazine-6-nitro-4(2H)4'-piperidin)-2-one]
LD50 [1]: > 800 mg/kg
Min. active dose in Rotarod test [2]: 50 mg/kg p.o.
Reduction of spontaneous activity in mice (min. active dose) [3]: 15 mg/kg p.o.
Min. active dose in Catalepsy induction (catalepsy in rats): 200 mg/kg p.o.
ED50 [4]: 2.7 mg/kg
Min. active dose in Turning-behaviour [5]: > 15 mg/kg p.o.
Min. active dose in C.A.R. test [6]: 20 mg/kg p.o.
Reduction of body temperature in mice (min. active dose) [7]: 110 mg/kg p.o.

O=C(CCCN1CCC(O)(c2ccc(Cl)cc2)CC1)c1ccc(F)cc1 [Haloperidol, haloperidol, reference compound]
LD50 [1]: ~75 mg/kg
Min. active dose in Rotarod test [2]: 0.5 mg/kg p.o.
Reduction of spontaneous activity in mice (min. active dose) [8]: 0.78 mg/kg p.o.
Reduction of body temperature in mice (min. active dose) [9]: 3.12 mg/kg p.o.
Min. active dose in Catalepsy induction (catalepsy in rats): 0.5 mg/kg p.o.
ED50 [4]: 0.2 mg/kg
Min. active dose in Turning-behaviour [5]: 0.5 mg/kg p.o.
Min. active dose in C.A.R. test [6]: 0.5 mg/kg p.o.
